# Paper PMC8036603, “Small Molecule Inhibitors of White Spot Syndrome Virus: Promise in Shrimp Seedling Culture” (International Journal of Molecular Sciences, 2021)
# Like-named read-outs stand apart in the source and are kept apart here.
# Key:
# [1] = Acute toxicity assay in shrimp larvae; format: in vivo, Litopenaeus vannamei; conditions: Litopenaeus vannamei (shrimp) larvae, in vivo, other: immersion of larvae in test solutions, 28 °C, 95% CI in brackets; for LC50 at 24 h: 24 h exposure, read-out: LC50 (mg/L; 95% CI) 24 h; for LC50 at 48 h: 48 h exposure, read-out: LC50 (mg/L; 95% CI) 48 h; for LC50 at 72 h: 72 h exposure, read-out: LC50 (mg/L; 95% CI) 72 h
# Protocol: (§1) Shrimp (L. vannamei) larvae (total length: 0.5 ± 0.04 cm, body weight: 4.2 ± 0.4 mg, mean ± SD) were provided by Zhejiang Mariculture Research Institute Qingjiang Station (Wenzhou, China). The larvae were maintained in a culture pond at 28 °C, fed four times a day with commercial feed pellets, and collected randomly for PCR testing to verify the WSSV-free status prior to the trial.
# (§2) Acute toxicity of the coumarin derivatives was investigated by exposing larvae to a range of compound concentrations, from 0.1 mg/L to 100 mg/L of coumarin derivatives, where the dose setting was based on the data from preliminary tests in our laboratory. A DMSO-control (2%, v/v, the highest percentage of DMSO in treatments) served as the control. During the experiment, every 20 larvae were moved into six-well plates filled with 6 mL/per well freshly prepared test solutions for a 72-h incubation at 28 °C with a natural photoperiod. […] To avoid deterioration of water quality, dead shrimps were immediately removed at the point of observation. Three replicate experiments were performed.
# (§3) Compound response curves were represented by a logistic sigmoidal function with a maximal effect level (Amax) and Hill coefficient representing the sigmoidal transition (Origin 8.1; http://www.originlab.com, accessed on 25 March 2021). Statistical analyses were performed using SPSS (version 18.0) statistical software (SPSS Inc., Chicago, IL, USA). The LC50 and EC50 values with 95% CIs were calculated using probit analysis. Virus titers were log10-transformed prior to statistical analyses. Unpaired Student’s t-tests were used to compare coumarin-treated samples and negative-control DMSO samples for determining significance and data are presented as mean values ± SD.
# [2] = system: white spot syndrome virus (WSSV); assay: Anti-WSSV activity in shrimp larvae, co-incubation, copy number of viral genome by RT-qPCR; format: in vivo, Litopenaeus vannamei
# [3] = Solubility / precipitation in aquacultural water; format: physicochemical; conditions: for lowest precipitation concentration / lowest precipitation concentration (bracketed value in LC50 48 h column) / lowest precipitation concentration (bracketed value in LC50 72 h column): test range 0.4~100 mg/L, aquacultural water, LC50 NONE
# Protocol: Prior to evaluation of the anti-WSSV activity of coumarins, the safety doses for larvae needed to be determined. […] In contrast, the electron-withdrawing group was more toxic than the electron-donating group, with the LC50 of A5‒A8 being <5 mg/L at 72 h. […] Based on preliminary analysis of the structure-activity relationship (SAR) of similar spatial structures with different substituents of electron-donating and electron-withdrawing groups to coumarins A1, B1, and C1, we considered that […] of compounds; this provides a basis for further research.
# All conventional reagents and solvents are purchased directly from commercial companies and no further purification is required. Organic solvents were purchased from Sinopharm chemical reagent Co., Ltd. and purified by distillation and moisture was excluded from the glass apparatus using CaCl2 drying tubes. Throughout this study, silica gel H (200–300 mesh; Qingdao Marine Chemical Factory, Qingdao, China) was used for the column chromatography. For thin layer chromatographic (TLC) plates, Silica gel (GF254) (Qingdao Marine Chemical Factory, Qingdao, China) were used for thin layer chromatographic (TLC) analysis, and all of the spots and bands were detected by UV irradiation (254, 365 nm). The intermediates and products were characterized by electrospray ionization mass spectrometry (TripleTOF5600þ; AB SCIEX Pte. Ltd., Boston, MA, USA), ^1H NMR and ^13C NMR (Bruker AM500 spectrometer; Bruker Corporation, Berne, Switzerland). The derivatives were dissolved in 100% dimethyl sulfoxide (DMSO; Beyotime Biotechnology, Haimen, China), stored at 4 °C prior to antiviral evaluation, and used within 6 months. For solubility, the stock solutions, at a concentration of 50 mg/mL, were sonicated for approximately 10 min to ensure that the derivatives were fully dissolved and mixed.
# [4] = system: Shrimp (L. vannamei) larvae; assay: Acute toxicity assay in shrimp larvae; format: in vivo, Litopenaeus vannamei; conditions: after 72 h of exposure
# Protocol: as §1, §2, §3
# [5] = system: white spot syndrome virus (WSSV); conditions: cited from earlier work
# [6] = Whispovirus xiabaidian, 72 h, WSSV-infected larvae, copy number of viral genome, 72 h; 95% CI in brackets; read-out: EC50 (mg/L; 95% CI), median effective concentration
# [7] = WSSV-infected larvae, copy number of viral genome, 72 h; 95% CI in brackets
# [8] = Whispovirus xiabaidian, 72 h, read-out: EC50 (mg/L; 95% CI), median effective concentration, WSSV-infected larvae, copy number of viral genome, 72 h; 95% CI in brackets
# [9] = six-point dose-response, viral genome copy number in larvae
SMILES,LC50 at 24 h [1] [mg/L],LC50 at 48 h [1] [mg/L],LC50 at 72 h [1] [mg/L],further results
"O=C1Nc2c(c(=O)oc3ccccc23)C(c2ccccc2)N1 (centres unmarked) [A1, 4-phenyl-3,4-dihydro-2H-chromeno[4,3-d]pyrimidine-2,5(1H)-dione]",95.5,71.4,32.5,"EC50 [2, 6]: 21.5 mg/L"
"Cc1ccc(C2NC(=O)Nc3c2c(=O)oc2ccccc32)cc1 (centres unmarked) [A2, 4-(p-tolyl)-3,4-dihydro-2H-chromeno[4,3-d]pyrimidine-2,5(1H)-dione]",15,14.3,10,"EC50 (mg/L; 95% CI), median effective concentration [2, 7]: 05.037 (4.076~7.593) mg/L; EC50 [2, 6]: < 10 mg/L"
"COc1ccc(C2NC(=O)Nc3c2c(=O)oc2ccccc32)cc1 (centres unmarked) [A3, 4-(4-methoxyphenyl)-3,4-dihydro-2H-chromeno[4,3-d]pyrimidine-2,5(1H)-dione]",26.9,24.5,21.1,"EC50 [2, 6]: 14.9 mg/L"
"O=C1Nc2c(c(=O)oc3ccccc23)C(c2ccc(O)cc2)N1 (centres unmarked) [A4, 4-(4-hydroxyphenyl)-3,4-dihydro-2H-chromeno[4,3-d]pyrimidine-2,5(1H)-dione]",,,,"EC50 [2, 8]: 21.7 mg/L; inhibitory efficiency on WSSV replication [2, 9]: exceeded 90%; lowest precipitation concentration [3]: NONE (50) mg/L; lowest precipitation concentration (bracketed value in LC50 48 h column) [3]: NONE (50) mg/L; lowest precipitation concentration (bracketed value in LC50 72 h column) [3]: NONE (50) mg/L"
"O=C1Nc2c(c(=O)oc3ccccc23)C(c2ccc(F)cc2)N1 (centres unmarked) [A5, 4-(4-fluorophenyl)-3,4-dihydro-2H-chromeno[4,3-d]pyrimidine-2,5(1H)-dione]",16.6,11.7,10.1,"EC50 (mg/L; 95% CI), median effective concentration [2, 7]: 08.416 (7.137~11.317) mg/L; EC50 [2, 6]: < 10 mg/L"
"O=C1Nc2c(c(=O)oc3ccccc23)C(c2ccc(Cl)cc2)N1 (centres unmarked) [A6, 4-(4-chlorophenyl)-3,4-dihydro-2H-chromeno[4,3-d]pyrimidine-2,5(1H)-dione]",2.58,2.48,2.35,
"O=C1Nc2c(c(=O)oc3ccccc23)C(c2ccc(Br)cc2)N1 (centres unmarked) [A7, 4-(4-bromophenyl)-3,4-dihydro-2H-chromeno[4,3-d]pyrimidine-2,5(1H)-dione]",14.1,5.68,3.37,
"O=C1Nc2c(c(=O)oc3ccccc23)C(c2ccc([N+](=O)[O-])cc2)N1 (centres unmarked) [A8, 4-(4-nitrophenyl)-3,4-dihydro-2H-chromeno[4,3-d]pyrimidine-2,5(1H)-dione]",8.76,3.43,1.61,
"N#Cc1ccc(C2NC(=O)Nc3c2c(=O)oc2ccccc32)cc1 (centres unmarked) [A9, 4-(2,5-dioxo-1,3,4,5-tetrahydro-2H-chromeno[4,3-d]pyrimidin-4-yl)benzonitrile]",19.8,18,7.33,
"O=c1oc2ccccc2c2c1C(c1ccccc1)NC(=S)N2 (centres unmarked) [B1, 4-phenyl-2-thioxo-1,2,3,4-tetrahydro-5H-chromeno[4,3-d]pyrimidin-5-one]",15,12.8,10.5,
"Cc1ccc(C2NC(=S)Nc3c2c(=O)oc2ccccc32)cc1 (centres unmarked) [B2, 2-thioxo-4-(p-tolyl)-1,2,3,4-tetrahydro-5H-chromeno[4,3-d]pyrimidin-5-one]",23.9,18.6,14.7,
"COc1ccc(C2NC(=S)Nc3c2c(=O)oc2ccccc32)cc1 (centres unmarked) [B3, 4-(4-methoxyphenyl)-2-thioxo-1,2,3,4-tetrahydro-5H-chromeno[4,3-d]pyrimidin-5-one]",66.2,64.1,41.7,"EC50 [2, 6]: 25.6 mg/L"
"O=c1oc2ccccc2c2c1C(c1ccc(O)cc1)NC(=S)N2 (centres unmarked) [B4, 4-(4-hydroxyphenyl)-2-thioxo-1,2,3,4-tetrahydro-5H-chromeno[4,3-d]pyrimidin-5-one]",,,,"EC50 [2, 8]: 22.6 mg/L; inhibitory efficiency on WSSV replication [2, 9]: exceeded 90%; lowest precipitation concentration [3]: NONE (50) mg/L; lowest precipitation concentration (bracketed value in LC50 48 h column) [3]: NONE (50) mg/L; lowest precipitation concentration (bracketed value in LC50 72 h column) [3]: NONE (50) mg/L"
"O=c1oc2ccccc2c2c1C(c1ccc(F)cc1)NC(=S)N2 (centres unmarked) [B5, 4-(4-fluorophenyl)-2-thioxo-1,2,3,4-tetrahydro-5H-chromeno[4,3-d]pyrimidin-5-one]",16.6,8.87,8.4,
"O=c1oc2ccccc2c2c1C(c1ccc(Cl)cc1)NC(=S)N2 (centres unmarked) [B6, 4-(4-chlorophenyl)-2-thioxo-1,2,3,4-tetrahydro-5H-chromeno[4,3-d]pyrimidin-5-one]",8.85,6.63,4.5,
"O=c1oc2ccccc2c2c1C(c1ccc(Br)cc1)NC(=S)N2 (centres unmarked) [B7, 4-(4-bromophenyl)-2-thioxo-1,2,3,4-tetrahydro-5H-chromeno[4,3-d]pyrimidin-5-one]",10,4.81,4.46,
"O=c1oc2ccccc2c2c1C(c1ccc([N+](=O)[O-])cc1)NC(=S)N2 (centres unmarked) [B8, 4-(4-nitrophenyl)-2-thioxo-1,2,3,4-tetrahydro-5H-chromeno[4,3-d]pyrimidin-5-one]",13.6,7.48,3.06,
"N#Cc1ccc(C2NC(=S)Nc3c2c(=O)oc2ccccc32)cc1 (centres unmarked) [B9, 4-(5-oxo-2-thioxo-1,3,4,5-tetrahydro-2H-chromeno[4,3-d]pyrimidin-4-yl)benzonitrile]",37.1,31.5,9.63,
N#CC1=C(N)Oc2c(c(=O)oc3ccccc23)C1c1ccccc1 (centres unmarked) [C1],18.4,16.6,9.18,"EC50 [2, 8]: 2.9 mg/L"
COc1ccc(C2C(C#N)=C(N)Oc3c2c(=O)oc2ccccc32)cc1 (centres unmarked) [C3],22.3,17.3,17.3,"EC50 [2, 8]: 14.8 mg/L"
N#CC1=C(N)Oc2c(c(=O)oc3ccccc23)C1c1ccc(O)cc1 (centres unmarked) [C4],,,,"EC50 [2, 6]: 61.2 mg/L; inhibitory efficiency on WSSV replication [2, 9]: exceeded 90%"
N#CC1=C(N)Oc2c(c(=O)oc3ccccc23)C1c1ccc(F)cc1 (centres unmarked) [C5],,,,"signs of toxicity at the saturation concentration [4]: No signs of toxicity were observed; EC50 [2, 8]: 8.82 mg/L; inhibitory efficiency on WSSV replication [2, 9]: exceeded 90%; lowest precipitation concentration [3]: NONE (16) mg/L; lowest precipitation concentration (bracketed value in LC50 48 h column) [3]: NONE (16) mg/L; lowest precipitation concentration (bracketed value in LC50 72 h column) [3]: NONE (16) mg/L; solubility in aquacultural water ([3]; tested concentration 16 mg/L, 28 °C): insoluble"
N#CC1=C(N)Oc2c(c(=O)oc3ccccc23)C1c1ccc(Cl)cc1 (centres unmarked) [C6],,44.2,17.7,"EC50 [2, 8]: 8.54 mg/L; inhibitory efficiency on WSSV replication [2, 9]: exceeded 90%"
N#CC1=C(N)Oc2c(c(=O)oc3ccccc23)C1c1ccc(C#N)cc1 (centres unmarked) [C9],,,,"EC50 [2, 8]: 60.5 mg/L"
C=CCN1C(=O)/C(=C/c2ccc(-c3ccccc3)o2)SC1=S [LJ001],,,,half-life in aquaculture water [5]: less than 2 days
C=CCN1C(=O)S/C(=C\c2ccc(-c3ccccc3)o2)C1=O [LJ025],,,,half-life in aquaculture water [5]: less than 2 days
